In publication PMC3248958 (Bioorganic & medicinal chemistry, 2011):

Target: T1, Human Aromatase (Homo sapiens, UniProt P11511)
T1 sequence (P11511 1-503): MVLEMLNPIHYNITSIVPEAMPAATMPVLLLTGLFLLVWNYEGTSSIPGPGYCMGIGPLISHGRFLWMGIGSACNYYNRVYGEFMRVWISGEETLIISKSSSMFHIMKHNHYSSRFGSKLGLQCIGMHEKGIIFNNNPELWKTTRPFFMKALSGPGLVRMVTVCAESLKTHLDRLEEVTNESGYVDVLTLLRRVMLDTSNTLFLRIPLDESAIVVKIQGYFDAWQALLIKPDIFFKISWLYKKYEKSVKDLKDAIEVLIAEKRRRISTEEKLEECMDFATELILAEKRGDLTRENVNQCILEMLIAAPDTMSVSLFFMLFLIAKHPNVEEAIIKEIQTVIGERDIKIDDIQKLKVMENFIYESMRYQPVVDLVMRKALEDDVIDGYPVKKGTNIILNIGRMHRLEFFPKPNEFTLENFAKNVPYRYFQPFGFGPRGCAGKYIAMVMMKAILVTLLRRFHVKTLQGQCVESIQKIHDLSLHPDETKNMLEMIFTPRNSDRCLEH
Assay: Aromatase assay
Assay type: biochemical
Conditions: not given

Structure (SMILES) | times higher aromatase inhibitory activity than trans-resveratrol | times more potent than the lead compound 3a as an aromatase inhibitor
c1cncc(-c2nsc(-c3cccnc3)n2)c1 [Compound 3b] | 30-125 times | greater than 250 times

Same assay, conditions: relative to trans-resveratrol

Structure (SMILES) | times higher aromatase inhibitory activity than trans-resveratrol
c1cc(-c2nsc(-c3ccncc3)n2)ccn1 [Compound 3c] | 30-125 times

Tested on: quinone reductase 1 (QR1)
Assay: Quinone reductase 1
Assay type: cell-based, mouse
Conditions: Hepa 1c1c7 cells; determined for compounds with induction ratios > 2

Structure (SMILES) | QR1 Assay CD (concentration that doubles the activity)
c1cc(-c2nsc(-c3ccncc3)n2)ccn1 [Compound 3c] | > 50 µM
Cc1ccc(-c2nsc(-c3ccc(C)cc3Br)n2)c(Br)c1 [Compound 3dd, 3,5-Bis(2-bromo-4-methylphenyl)-1,2,4-thiadiazole] | > 50 µM
O=[N+]([O-])c1ccc(-c2nsc(-c3ccc([N+](=O)[O-])cc3)n2)cc1 [Compound 3ff] | > 50 µM
COc1ccc(-c2nsc(-c3ccc(OC)cc3)n2)cc1 [Compound 3g] | > 50 µM
N#Cc1ccc(-c2nsc(-c3ccc(C#N)cc3)n2)cc1 [Compound 3gg, 4,4′-(1,2,4-Thiadiazole-3,5-diyl)dibenzonitrile] | > 50 µM
N#Cc1cccc(-c2nsc(-c3cccc(C#N)c3)n2)c1 [Compound 3hh, 3,3′-(1,2,4-Thiadiazole-3,5-diyl)dibenzonitrile] | > 50 µM
Oc1ccc(-c2nsc(-c3ccc(O)cc3)n2)cc1 [Compound 3jj] | > 50 µM
Ic1ccc(-c2nsc(-c3ccc(I)cc3)n2)cc1 [Compound 3l, 3,5-Bis(4-iodophenyl)-1,2,4-thiadiazole] | > 50 µM
Nc1ccc(-c2nsc(-c3ccc(N)cc3)n2)cc1 [Compound 3ll, 3,5-Bis(4-aminophenyl)-1,2,4-thiadiazole] | > 50 µM
Clc1ccc(-c2nsc(-c3ccc(Cl)c(Cl)c3)n2)cc1Cl [Compound 3v, 3,5-Bis(3,4-dichlorophenyl)-1,2,4-thiadiazole] | > 50 µM
Cc1ccc(-c2nsc(-c3ccc(C)cc3)n2)cc1 [Compound 3x, 3,5-Di-p-tolyl-1,2,4-thiadiazole] | > 50 µM
CCCCc1ccc(-c2nsc(-c3ccc(CCCC)cc3)n2)cc1 [Compound 3z, 3,5-Bis(4-butylphenyl)-1,2,4-thiadiazole] | > 50 µM
Oc1ccc(CCc2cc(O)cc(O)c2)cc1 [dihydroresveratrol, reference compound] | > 50 µM

Same assay, conditions: Hepa 1c1c7 cells; positive control

Structure (SMILES) | QR1 Assay CD of positive control
O=c1cc(-c2ccc(Br)cc2)oc2ccccc12 [4'-Bromoflavone, reference compound] | 0.01 M

Tested on: not given
Assay: not given
Conditions: tested at 400 μM of each compound

Structure (SMILES) | DPPH assay % inhibition
c1cncc(-c2nsc(-c3cccnc3)n2)c1 [Compound 3b] | -16.1±1.1%
c1cc(-c2nsc(-c3ccncc3)n2)ccn1 [Compound 3c] | -35.6±0.4%
